What was measured:
[1] = test system: tissue strips obtained from Landrace pig bladders; assay: Functional potassium channel opening activity in isolated bladder strips (field-stimulated twitch); conditions: for EC50 / Emax: Sus scrofa; for EC50: amount causing 50% of the agent's maximal response, read-out: ED50 (the source's name); for Emax: maximal efficacy relative to P1075, field stimulation 0.05 Hz
Method: Compounds were evaluated for functional potassium channel opening activity using tissue strips obtained from Landrace pig bladders.
Landrace pig bladders were obtained from female Landrace pigs of 930 kg. Landrace pigs were euthanized with an intraperitoneal injection of pentobarbital solution, Somlethal®, J. A. Webster Inc., Sterling Mass. The entire bladder was removed and immediately placed into Krebs Ringer bicarbonate solution (composition, mM: NaCl, 120; NaHCO3, 20; dextrose, 11; KCl, 4.7; CaCl2, 2.5; MgSO4, 1.5; KH2PO4, 1.2; K2EDTA, 0.01, equilibrated with 5% CO2/95% O2pH 7.4 at 37° C.). Propranolol (0.004 mM) was included in all of the assays to block β-adrenoceptors. The trigonal and dome portions were discarded. Strips 3-5 mm wide and 20 mm long were prepared from the remaining tissue cut in a circular fashion. The mucosal layer was removed. One end was fixed to a stationary glass rod and the other to a Grass FT03 transducer at a basal preload of 1.0 gram. Two parallel platinum electrodes were included in the stationary glass rod to provide field stimulation of 0.05 Hz, 0.5 milli-seconds at 20 volts. This low frequency stimulation produced a stable twitch response of 100-500 centigrams. Tissues were allowed to equilibrate for at least 60 minutes and primed with 80 mM KCl. A control concentration response curve (cumulative) was generated for each tissue using the potassium channel opener P1075 as the control agonist. […] After a 60 minute rinsing period, a concentration response curve (cumulative) was generated for the test agonist in the same fashion as that used for the control agonist P1075. The maximal efficacy of each compound (expressed as % relative to P1075) is reported. The amount of agent necessary to cause 50% of the agent's maximal response (ED50) was calculated using “ALLFIT” (DeLean et al., Am. J. Physiol., 235, E97 (1980)), hereby incorporated by reference. Agonist potencies were also expressed as an index relative to P1075. The index was calculated by dividing the ED50 for P1075 by the ED50 for the test agonist in a given tissue. Each tissue was used for only one test agonist, and the indices obtained from each tissue were averaged to provide an average index of potency.

[2] = test system: primary cultured guinea-pig urinary bladder (GPB) cells; assay: Membrane hyperpolarization (MHP) assay, DiBAC(4)3 / FLIPR; type: cell-based; conditions: Cavia porcellus; membrane hyperpolarization in guinea-pig bladder cells
Method: Compounds were evaluated for potassium channel opening activity using primary cultured guinea-pig urinary bladder (GPB) cells.
For the preparation of urinary bladder smooth muscle cells, urinary bladders were removed from male guinea-pigs (Hartley, Charles River, Wilmington, Mass.) weighing 300-400 g and placed in ice-cold Ca^2+-free Krebs solution (composition, mM: KCl, 2.7; KH2PO4, 1.5; NaCl, 75; Na2HPO4, 9.6; Na2HPO4.7H2O, 8; MgSO4, 2; glucose, 5; HEPES, 10; pH 7.4). Cells were isolated by enzymatic dissociation as previously described with minor modifications (Klockner and Isenberg, Pflugers Arch. (1985), 405, 329-339), hereby incorporated by reference. The bladder was cut into small sections and incubated in 5 mL of the Kreb's solution containing 1 mg/mL collagenase (Sigma, St. Louis, Mont.) and 0.2 mg/mL pronase (Calbiochem, La Jolla, Calif.) with continuous stirring in a cell incubator for 30 minutes. The mixture was then centrifuged at 1300× g for 5 minutes, and the pellet resuspended in Dulbecco's PBS (GIBCO, Gaithersburg, Md.) and recentrifuged to remove residual enzyme. The cell pellet was resuspended in 5 mL growth media (composition: Dulbecco's modified Eagle's medium supplemented with 10% fetal bovine serum, 100 units/mL penicillin, 100 units/mL streptomycin and […] amphotericin B) and further dissociated by pipetting the suspension through a flame-polished Pasteur pipette and passing it through a polypropylene mesh membrane (Spectrum, Houston, Tex.). The cell density was adjusted to 100,000 cells/mL by resuspension in growth media. Cells were plated in clear-bottomed black 96-well plates (Packard) for membrane potential studies at a density of 20,000 cells/well and maintained in a cell incubator with 90% air:10% CO2 until confluent. Cells were confirmed to be of smooth muscle type by cytoskeletal staining using a monoclonal mouse anti human-α-smooth muscle actin (Biomeda, Foster City, Calif.).
Functional activity at potassium channels was measured by evaluating changes in membrane potential using the bis-oxonol dye DiBAC(4)3 (Molecular Probes) in a 96-well cell-based kinetic assay system, Fluorescent Imaging Plate Reader (FLIPR) (K. S. Schroeder et al., J. Biomed. Screen., v. 1 pp. 7581 (1996)), hereby incorporated by reference. DiBAC(4)3 is an anionic potentiometric probe which partitions between cells and extracellular solution in a membrane potential-dependent manner. With increasing membrane potential (for example, K^+ depolarization), the probe further partitions into the cell; this is measured as an increase in fluorescence due to dye interaction with intracellular lipids and proteins. Conversely, decreasing membrane potential (hyperpolarization by potassium channel openers) evokes a decrease in fluorescence.
Confluent guinea-pig urinary bladder cells cultured in black clear-bottomed 96-well plates were rinsed twice with […] assay buffer (composition, mM: HEPES, 20; NaCl, 120; KCl, 2; CaCl2, 2; MgCl2, 1; glucose, 5; pH 7.4 at 25° C.) containing 5 μM DiBAC(4)3 and incubated with […] of the buffer in a cell incubator for 30 minutes at 37° C. to ensure dye distribution across the membrane. After recording the baseline fluorescence for 5 minutes, the reference or test compounds, prepared at 10 times the concentration in the assay buffer, were added directly to the wells. Changes in fluorescence were monitored for an additional 25 minutes. Hyperpolarization responses were corrected for any background noise and were normalized to the response observed with 10 μM of the reference compound P1075 (assigned as 100%), a potent opener of smooth muscle KATP channels (Quast et al., Mol. Pharmacol., v. 43 pp. 474-481 (1993)).
Routinely, five concentrations of P1075 or test compounds (log or half-log dilutions) were evaluated and the maximal steady-state hyperpolarization values (expressed as % relative to P1075) plotted as a function of concentration. […]

SMILES	EC50 ([1]; Landrace pig bladder strips)	EC50 [2]	Emax ([1]; Landrace pig bladder strips)	Index ([1]; ED50 for P1075 divided by ED50 for the test agonist in a given tissue, averaged)	effect on stimulated twitch / stimulated contractions of the bladder ([1]; Landrace pig bladder strips, P1075 over 10^−9 to 10^−5 M)
Cc1cccc(C(=O)NC(Nc2c(Nc3cccnc3)c(=O)c2=O)C(C)(C)C)c1 (centres unmarked) [Example 6, N-(1-{[3,4-dioxo-2-(3-pyridinylamino)-1-cyclobuten-1-yl]amino}-2,2-dimethylpropyl)-3-methylbenzamide]	1000 nM	–	100%	–	–
O=C(NC(Nc1c(Nc2cccnc2)c(=O)c1=O)C(F)(F)C(F)(F)F)c1cccc(Cl)c1 (centres unmarked) [Example 26, 3-chloro-N-(1-{[3,4-dioxo-2-(3-pyridinylamino)-1-cyclobuten-1-yl]amino}-2,2,3,3,3-pentafluoropropyl)benzamide]	420 nM	–	64%	–	–
CC(C)(C)C(NC(=O)CCc1ccccc1)Nc1c(Nc2cccnc2)c(=O)c1=O (centres unmarked) [Example 36, N-(1-{[3,4-dioxo-2-(3-pyridinylamino)-1-cyclobuten-1-yl]amino}-2,2-dimethylpropyl)-3-phenylpropanamide]	970 nM	–	99%	–	–
C=CCC(C)(C)C(NC(=O)c1ccc(Cl)cc1)Nc1c(Nc2cccnc2)c(=O)c1=O (centres unmarked) [Example 17, 4-chloro-N-(-1-{[3,4-dioxo-2-(3-pyridinylamino)-1-cyclobuten-1-yl]amino}-2,2-dimethyl-4-pentenyl)benzamide]	5800 nM	180 nM	92%	–	–
CC(C)(C)C(NC(=O)c1ccc(I)cc1)Nc1c(Nc2cccnc2)c(=O)c1=O (centres unmarked) [Example 3, N-(1-{[3,4-dioxo-2-(3-pyridinylamino)-1-cyclobuten-1-yl]amino}-2,2-dimethylpropyl)-4-iodobenzamide]	2200 nM	–	73%	–	–
CCC(C)(C)N=C(NC#N)Nc1cccnc1 [Example P1075, reference compound]	–	–	–	–	completely eliminated the stimulated twitch
CC(C)(C)C(NC(=O)c1cc(Cl)cc(Cl)c1)Nc1c(Nc2cccnc2)c(=O)c1=O (centres unmarked) [Example 12, 3,5-dichloro-N-(1-{[3,4-dioxo-2-(3-pyridinylamino)-1-cyclobuten-1-yl]amino}-2,2-dimethylpropyl)benzamide]	2600 nM	–	78%	–	–
COc1cc(OC)cc(C(=O)NC(Nc2c(Nc3cccnc3)c(=O)c2=O)C(C)(C)C)c1 (centres unmarked) [Example 13, N-(1-{[3,4-dioxo-2-(3-pyridinylamino)-1-cyclobuten-1-yl]amino}-2,2-dimethylpropyl)-3,5-dimethoxybenzamide]	370 nM	–	75%	–	–
CC(C)(C)C(NC(=O)c1cccc(F)c1)Nc1c(Nc2cccnc2)c(=O)c1=O (centres unmarked) [Example 7, N-(1-{[3,4-dioxo-2-(3-pyridinylamino)-1-cyclobuten-1-yl]amino}-2,2-dimethylpropyl)-3-fluorobenzamide]	8400 nM	–	89%	–	–
CCC(CC)C(NC(=O)c1ccc(Cl)cc1)Nc1c(Nc2cccnc2)c(=O)c1=O (centres unmarked) [Example 21, 4-chloro-N-(1-{[3,4-dioxo-2-(3-pyridinylamino)-1-cyclobuten-1-yl]amino}-2-ethylbutyl)benzamide]	4000 nM	–	68%	–	–

The next lines start with results.

EC50 ([1]; Landrace pig bladder strips)	EC50 [2]	SMILES	Emax ([1]; Landrace pig bladder strips)	Index ([1]; ED50 for P1075 divided by ED50 for the test agonist in a given tissue, averaged)	effect on stimulated twitch / stimulated contractions of the bladder ([1]; Landrace pig bladder strips, P1075 over 10^−9 to 10^−5 M)
1300 nM	–	Cc1cccc(C(=O)NC(Nc2c(Nc3cccnc3Cl)c(=O)c2=O)C(C)(C)C)c1 (centres unmarked) [Example 32, N-[1-({2-[(2-chloro-3-pyridinyl)amino]-3,4-dioxo-1-cyclobuten-1-yl}amino)-2,2-dimethylpropyl]-3-methylbenzamide]	99%	–	–
–	580 nM	C=CCOCC(CC)(COCC=C)C(NC(=O)c1ccc(Cl)cc1)Nc1c(Nc2cccnc2)c(=O)c1=O (centres unmarked) [Example 20, N-(2,2-bis[(allyloxy)methyl]-1-{[3,4-dioxo-2-(3-pyridinylamino)-1-cyclobuten-1-yl]amino}butyl)-4-chlorobenzamide]	–	–	–
380 nM	–	CC(C)(C)C(NC(=O)c1cccc(Cl)c1)Nc1c(Nc2cccnc2)c(=O)c1=O (centres unmarked) [Example 5, 3-chloro-N-(1-{[3,4-dioxo-2-(3-pyridinylamino)-1-cyclobuten-1-yl]amino}-2,2-dimethylpropyl)benzamide]	98%	–	–
–	> 10000 nM	CCC(CC)(CCC#N)C(NC(=O)c1ccc(Cl)cc1)Nc1c(Nc2cccnc2)c(=O)c1=O (centres unmarked) [Example 19, 4-chloro-N-(4-cyano-1-{[3,4-dioxo-2-(3-pyridinylamino)-1-cyclobuten-1-yl]amino}-2,2-diethylbutyl)benzamide]	–	–	–
2900 nM	–	CC(C)(Cc1ccccc1)C(NC(=O)c1ccc(Cl)cc1)Nc1c(Nc2cccnc2Cl)c(=O)c1=O (centres unmarked) [Example 31, 4-chloro-N-[1-({2-[(2-chloro-3-pyridinyl)amino]-3,4-dioxo-1-cyclobuten-1-yl}amino)-2,2-dimethyl-3-phenylpropyl]benzamide]	76%	0.039	–
3000 nM	–	CC(C)(C)C(NC(=O)c1ccc(Cl)cc1)Nc1c(Nc2cccnc2Cl)c(=O)c1=O (centres unmarked) [Example 29, 4-chloro-N-[1-({2-[(2-chloro-3-pyridinyl)amino]-3,4-dioxo-1-cyclobuten-1-yl}amino)-2,2-dimethylpropyl]benzamide]	81%	–	–
3800 nM	–	CC(C)(C)C(NC(=O)c1cc(F)cc(F)c1)Nc1c(Nc2cccnc2)c(=O)c1=O (centres unmarked) [Example 16, N-(-1-{[3,4-dioxo-2-(3-pyridinylamino) 1-cyclobuten-1-yl]amino}-2,2-dimethylpropyl)-3,5-difluorobenzamide]	94%	–	–
2800 nM	–	CC(C)(C)C(NC(=O)c1cccc(I)c1)Nc1c(Nc2cccnc2)c(=O)c1=O (centres unmarked) [Example 8, N-(1-{[3,4-dioxo-2-(3-pyridinylamino)-1-cyclobuten-1-yl]amino}-2,2-dimethylpropyl)-3-iodobenzamide]	84%	–	–
